In paper PMC8369945 (Hepatology Communications, 2021):
“Also recorded” adds a separate entry of the source.

Legend:
[1] = tested on: db/db mice; assay: db/db mouse model of T2DM; type: in vivo; details: 10 days once daily p.o., pio 30, PXL065 20, d-S-pio 20 mg/kg
[2] = Phase 1a clinical study, pharmacokinetics in healthy subjects; details: human, single 22.5 mg PXL065
[3] = tested on: C57BL/6J male mice; assay: Weight gain study in mouse; type: in vivo; details: normal C57BL/6J male mice, pio 30, PXL065 15, d-S-pio 15 mg/kg/day, twice daily; for body weight versus vehicle: after 10 days of dosing
[4] = tested on: C57BL/6J mice on CD or MCD diet; assay: Choline-deficient; type: in vivo, mouse; details: for markers of NASH progression: two diet models (d-S-pio only CD)
[5] = target: T1, PPARα (Homo sapiens, UniProt Q07869); assay: PPARα coactivator recruitment
T1 sequence (Q07869 1-468): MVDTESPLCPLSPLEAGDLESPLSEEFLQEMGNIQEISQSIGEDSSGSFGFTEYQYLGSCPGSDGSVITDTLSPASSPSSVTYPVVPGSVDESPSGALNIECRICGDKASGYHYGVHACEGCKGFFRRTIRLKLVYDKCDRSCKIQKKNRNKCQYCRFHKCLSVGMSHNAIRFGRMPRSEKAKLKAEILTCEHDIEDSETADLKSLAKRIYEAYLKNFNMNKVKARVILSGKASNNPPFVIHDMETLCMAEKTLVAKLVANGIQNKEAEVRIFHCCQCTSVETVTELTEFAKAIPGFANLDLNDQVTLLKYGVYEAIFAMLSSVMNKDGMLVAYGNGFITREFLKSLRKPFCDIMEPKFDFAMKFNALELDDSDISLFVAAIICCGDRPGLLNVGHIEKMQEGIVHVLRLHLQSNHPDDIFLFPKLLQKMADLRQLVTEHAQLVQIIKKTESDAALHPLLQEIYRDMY

[6] = target: T2, PPARδ (Homo sapiens, UniProt Q03181); assay: PPARδ coactivator recruitment
T2 sequence (Q03181 1-441): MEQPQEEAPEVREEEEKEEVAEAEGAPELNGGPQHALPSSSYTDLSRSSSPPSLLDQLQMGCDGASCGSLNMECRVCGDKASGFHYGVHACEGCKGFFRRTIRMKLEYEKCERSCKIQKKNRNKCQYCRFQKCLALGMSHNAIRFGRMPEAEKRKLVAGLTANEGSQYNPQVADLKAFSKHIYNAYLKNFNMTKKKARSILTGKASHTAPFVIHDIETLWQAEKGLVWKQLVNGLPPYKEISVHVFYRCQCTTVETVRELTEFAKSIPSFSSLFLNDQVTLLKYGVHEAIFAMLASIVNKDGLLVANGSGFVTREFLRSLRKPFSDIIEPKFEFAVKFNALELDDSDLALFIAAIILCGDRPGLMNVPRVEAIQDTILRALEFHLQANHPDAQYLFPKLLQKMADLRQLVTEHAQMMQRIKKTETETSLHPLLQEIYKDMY

| exposure to (R)-pioglitazone, higher than in the 45-mg Actos group [2] [%] | exposure to the (S)-enantiomer, lower than in the 45-mg Actos group [2] [%] | body-weight loss compared with vehicle- or PXL065-treated animals ([4]; MCD diet) | SMILES | inflammatory markers serum amyloid A, IL-1β and IL-6 [1] | serum adiponectin [1] | body weight versus vehicle [3] | adiponectin ([4]; CD diet mice) | reduction of hepatic steatosis and triglycerides, compared with pioglitazone ([4]; CD diet mice) | markers of NASH progression [4] | serum insulin [1] | fluid retention (total body water) [3] | hepatic fibrosis ([4]; either diet) | agonist activity at PPARα [5] | agonist activity at PPARδ [6] |
| --- | --- | --- | --- | --- | --- | --- | --- | --- | --- | --- | --- | --- | --- | --- |
| 19 | 42 |  | [2H][C@]1(Cc2ccc(OCCc3ccc(CC)cn3)cc2)SC(=O)NC1=O [PXL065, deuterated (R)‐pioglitazone] | significantly decreased | nonsignificant trend | did not increase body weight | increase | superior to pioglitazone | significantly affected all markers of NASH progression |  |  |  |  |  |
|  |  |  | [2H][C@@]1(Cc2ccc(OCCc3ccc(CC)cn3)cc2)SC(=O)NC1=O [d‐S‐pio, deuterated (S)‐pioglitazone] | no effect | significantly increased | significantly increased body weight over vehicle | increase |  | overall without effect | trend toward significant reduction | trend was observed for increased fluid retention; also recorded: a trend was observed | antifibrotic effect similar to that observed with PXL065 and pioglitazone |  |  |
|  |  | weight loss tended to be less | CCc1ccc(CCOc2ccc(CC3SC(=O)NC3=O)cc2)nc1 (centres unmarked) [pioglitazone, reference compound] | significantly decreased | significantly increased | significantly increased body weight over vehicle | increase |  | significantly affected all markers of NASH progression | significantly decreased | trend was observed for increased fluid retention; also recorded: significant increase in total body water |  | Neither pioglitazone, PXL065, nor d‐S‐pio showed binding to PPARα or agonist activity at PPARα or PPARδ | Neither pioglitazone, PXL065, nor d‐S‐pio showed binding to PPARα or agonist activity at PPARα or PPARδ |
